From PubChem BioAssay AID504726 (Broad Institute, 2011)
Active and inactive are the calls of the source.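 How the source made its calls: active means fitted half-maximal concentration for a cytotoxic signal drop no higher than ten times the top valid dose tested; inconclusive means flat curve between -70 and -30 percent, or an unreliable fit; inactive means flat within 30 percent, signal rise, or potency beyond limit.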

Experiment: HeLa cell cytotoxicity, dose response, cytotoxicity control, 24 h, cherry-picked samples (AID 504726);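 further: 0% = DMSO neutral controls and -100% = mitoxantrone positive controls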
Conditions: HeLa viability, CellTiter-Glo ATP luminescence, 24 h; at 35 µM (top of the series)
For `COc1cc(OC)cc(-c2c(-c3ccsc3)c3cc(Br)ccc3n2C)c1`, the activity change, negative = cytotoxicity was -23.6% (inactive). For `CC(OC(=O)c1cn(C)c2ccccc12)C(=O)N1CCCC1` (configuration not stated), the activity change, negative = cytotoxicity was -9.43% (inactive). In the case of `CCN(C(=O)c1cccc(S(=O)(=O)N2CCc3ccccc32)c1)C1CCS(=O)(=O)C1` (configuration not stated), the activity change, negative = cytotoxicity is reported as -1.74% (inactive). In the case of `Nc1ccc2nonc2c1[N+](=O)[O-]`, the activity change, negative = cytotoxicity is reported as 2.26% (inactive). With `COc1cccc(NC(=O)CN(C)C(=O)c2cc3ccccc3cc2OC)c1` the activity change, negative = cytotoxicity was 6.23% (inactive). With `CCn1c(SCc2nc3sc(C(=O)O)c(C)c3c(=O)[nH]2)nc2ccccc21` the activity change, negative = cytotoxicity was -9.24% (inactive). In the case of `CSC(=NS(=O)(=O)c1ccc(N)cc1)NS(=O)(=O)c1cccs1`, the activity change, negative = cytotoxicity is reported as -2.85% (inactive). With `CCCCc1ccc(C(=O)O)nc1` the activity change, negative = cytotoxicity was -11.4% (inactive). For `CSc1n[nH]c(=O)n1-c1cccc(Cl)c1`, the activity change, negative = cytotoxicity was 12.8% (inactive). In the case of `C/C(=N\NC(=O)CCc1c(C)n[nH]c1C)c1ccc([N+](=O)[O-])cc1`, the activity change, negative = cytotoxicity is reported as 6.48% (inactive). For `O=C(O)CC(C(=O)O)N1C(=O)/C(=C/C=C/c2ccco2)SC1=S` (configuration not stated), the activity change, negative = cytotoxicity was -8.39% (inactive). For `CN(CC(=O)Nc1ccc(N2CCOCC2)cc1)C(=O)CSc1ccc(Br)cc1`, the activity change, negative = cytotoxicity was 0.641% (inactive). In the case of `Cc1ccc(-c2nnc(-c3ccc(NC(=O)c4ccco4)cc3)o2)cc1`, the activity change, negative = cytotoxicity is reported as -2.7% (inactive). In the case of `CCCCn1c(N)c(N(CCOC)C(=O)c2cc(C)oc2C)c(=O)[nH]c1=O`, the activity change, negative = cytotoxicity is reported as -6.37% (inactive). With `O=C(CCn1c(=S)oc2ccccc21)N1CCN(c2ccc(F)cc2)CC1` the activity change, negative = cytotoxicity was 2.32% (inactive). For `Cc1cc(/C=N/Nc2ccc([N+](=O)[O-])cn2)c(C)n1-c1cccc(C(=O)O)c1`, the activity change, negative = cytotoxicity was -4.63% (inactive). With `CCc1cc[n+](-c2nc([O-])sc2C=O)cc1` the activity change, negative = cytotoxicity was 0.003% (inactive). For `COc1ccc(N(CC(=O)NCc2ccc3c(c2)OCO3)C(=O)c2csnn2)cc1`, the activity change, negative = cytotoxicity was 3.04% (inactive). In the case of `NC(=O)C1=NOC(CNc2ncc(C(F)(F)F)cc2Cl)C1` (configuration not stated), the activity change, negative = cytotoxicity is reported as -1.63% (inactive). With `COc1ccc(OCC(=O)N2CCN(c3cccc(C(F)(F)F)c3)CC2)cc1` the activity change, negative = cytotoxicity was -8.78% (inactive). With `Nc1ccc2c3c(cccc13)C(=O)N(c1ccccc1)C2=O` the activity change, negative = cytotoxicity was 19% (inactive). In the case of `Cc1ccc(OCC(=O)NC(=S)Nc2cccc(NC(=O)c3ccc(Cl)cc3Cl)c2)cc1`, the activity change, negative = cytotoxicity is reported as -4.71% (inactive). For `CC(=O)OCCn1c2nc(=O)[nH]c(=O)c-2nc2cc(C)c(C)cc21`, the activity change, negative = cytotoxicity was -8.08% (inactive). With `O=C(N/N=C/c1ccc(N2CCOCC2)cc1)c1ccccn1` the activity change, negative = cytotoxicity was -14.2% (inactive). With `Cc1cc(=O)oc2cc(OCC(=O)N3CCN(Cc4ccc5c(c4)OCO5)CC3)ccc12` the activity change, negative = cytotoxicity was -5.71% (inactive). With `COc1ccc(C(=O)OCC(=O)NC2CC2)cc1S(=O)(=O)Nc1ccc(C)cc1` the activity change, negative = cytotoxicity was 3.27% (inactive). For `Cc1cc(NC(=O)CSc2nnc(COc3cccc(C)c3C)n2C)no1`, the activity change, negative = cytotoxicity was 6.24% (inactive). In the case of `COc1cc(OC)cc(C(=O)NC2CC3CCC(C2)N3C)c1` (configuration not stated), the activity change, negative = cytotoxicity is reported as 3.6% (inactive). For `Cc1n[nH]c(C)c1N1C(=O)c2cccc3c(N4CCCCCC4)ccc(c23)C1=O`, the activity change, negative = cytotoxicity was -15.8% (inactive). In the case of `Cc1ccc(S(=O)(=O)/N=C/c2ccc(N(C)C)cc2)cc1`, the activity change, negative = cytotoxicity is reported as 2.12% (inactive). For `Cc1cnc(NC(=O)Cc2c[nH]c3ccccc23)s1`, the activity change, negative = cytotoxicity was -3.77% (inactive). With `CN(C)C(=O)c1ccc(NC(=O)COC(=O)C2(c3ccccc3)CCCC2)cc1` the activity change, negative = cytotoxicity was -4.12% (inactive). In the case of `CCOC(=O)N1CCN(C(=S)NC(=O)c2cccc(OC)c2)CC1`, the activity change, negative = cytotoxicity is reported as -2.14% (inactive). In the case of `CCOC(=O)CCCn1c(C)nc(=O)c(-c2ccccc2)c1C`, the activity change, negative = cytotoxicity is reported as 4.75% (inactive). In the case of `Cc1ccc(C(=O)CCC(=O)Nc2ncccc2C)cc1`, the activity change, negative = cytotoxicity is reported as -3.79% (inactive). For `CCN(CC)c1ccc2cc(S(=O)(=O)c3ccc(C)cc3)c(=O)oc2c1`, the activity change, negative = cytotoxicity was -3.69% (inactive). With `CCSc1nnc(Cc2cc(=O)[nH]c(=O)[nH]2)n1-c1ccc(F)cc1` the activity change, negative = cytotoxicity was -15.6% (inactive). With `Nc1nc(-c2ccc(C(=O)O)cc2)cs1` the activity change, negative = cytotoxicity was -2% (inactive). In the case of `COc1ccc(C(C)=O)cc1CN(C)C`, the activity change, negative = cytotoxicity is reported as 9% (inactive). For `CS(=O)(=O)c1cccc(C(=O)Oc2ccccc2)c1`, the activity change, negative = cytotoxicity was 5.26% (inactive). For `COc1cc(O)c(C(C)=O)c(CC(=O)O)c1`, the activity change, negative = cytotoxicity was -0.718% (inactive). In the case of `CCCOc1ccc(C=Nc2ccc(OC)c(S(=O)(=O)N3CCOCC3)c2)c(O)c1`, the activity change, negative = cytotoxicity is reported as 19% (inactive). With `O=C(Cn1nc(Cc2ccncc2)c2ccccc2c1=O)N1CCN(C(=O)c2ccco2)CC1` the activity change, negative = cytotoxicity was -4.22% (inactive). For `Cn1c(=O)c(NC2CCCCC2)c2c3c(cccc31)C(=O)c1ccccc1-2`, the activity change, negative = cytotoxicity was -11.9% (inactive). In the case of `Cc1cc[n+](-c2[nH]c(=O)sc2/C=N/N=C(\[O-])c2ccccc2)cc1C`, the activity change, negative = cytotoxicity is reported as -3.68% (inactive). For `COC(=O)C1=C(N)OC2=C(C(=O)CCC2)C1c1cccs1` (configuration not stated), the activity change, negative = cytotoxicity was -5.56% (inactive). In the case of `Cc1noc(C)c1C(=O)N1CCN(c2ccc(OCc3ccccc3)cc2)CC1`, the activity change, negative = cytotoxicity is reported as -3.67% (inactive). For `CCN(CC)C(=O)C1c2ccccc2Oc2ccccc21`, the activity change, negative = cytotoxicity was -12.1% (inactive). For `O=[N+]([O-])c1cccc(CSc2nc3ccccc3[nH]2)c1`, the activity change, negative = cytotoxicity was -8.29% (inactive). For `CC(C(=O)Nc1ccccc1)N1C(=O)c2ccccc2C1=O` (configuration not stated), the activity change, negative = cytotoxicity was -8.7% (inactive). In the case of `CCOc1ccc(/C=C2\CCCc3c2nc2ccccc2c3C(=O)O)cc1OC`, the activity change, negative = cytotoxicity is reported as -5% (inactive). With `O=C(O)c1cccc(-n2cccc2/C=C/[N+](=O)[O-])c1` the activity change, negative = cytotoxicity was -0.655% (inactive). For `Cc1cc(/C=C2\C(=O)NC(=O)N(Cc3ccccc3)C2=O)c(C)n1-c1ccc(Cl)c(C(=O)O)c1`, the activity change, negative = cytotoxicity was 1.64% (inactive). With `O=C(O)c1ccccc1C1=Nc2ccc(O)cc2Oc2cc(O)ccc21` the activity change, negative = cytotoxicity was -3.9% (inactive). For `O=C(Nc1ccccc1F)c1coc(=O)c(Br)c1`, the activity change, negative = cytotoxicity was -20.2% (inactive). With `CCc1ccc[n+](-c2[nH]c(=O)sc2/C=N/NC([S-])=Nc2ccccc2)c1` the activity change, negative = cytotoxicity was -14.2% (inactive). With `COc1ccc(N=C2SC(CC(=O)Nc3ccccc3)C(=O)N2Cc2ccco2)cc1` (configuration not stated) the activity change, negative = cytotoxicity was -17.3% (inactive). With `O=C(O)COc1ccc2c(c1)O/C(=C\c1ccco1)C2=O` the activity change, negative = cytotoxicity was -1.96% (inactive). With `CCN(CC)C(=S)SC1CCCCN(C(=O)c2ccccc2)C1=O` (configuration not stated) the activity change, negative = cytotoxicity was -6.6% (inactive). For `Cc1cccc(C)c1NC(=O)CSc1nnc(-c2ccco2)c(-c2ccco2)n1`, the activity change, negative = cytotoxicity was -6.45% (inactive). In the case of `COc1ccc(NC(=O)COC(=O)c2c(-c3ccccc3)noc2C)cc1`, the activity change, negative = cytotoxicity is reported as 6.45% (inactive). For `CCOc1ccc2noc3c2c1C(=O)c1ccccc1-3`, the activity change, negative = cytotoxicity was -3.75% (inactive). For `O=c1[nH]c(=O)n(C2CCCCC2)c(O)c1C=Nc1ccc(N2CCOCC2)cc1`, the activity change, negative = cytotoxicity was -11.5% (inactive). In the case of `Nc1nc(SCC(=O)N2CCCCC2)[nH]c(=O)c1NC(=O)c1cccs1`, the activity change, negative = cytotoxicity is reported as -0.747% (inactive). In the case of `O=C(O)/C(=C\c1cccs1)Sc1nnc(-c2ccc(F)cc2)o1`, the activity change, negative = cytotoxicity is reported as 0.075% (inactive). In the case of `CNc1ccc2c3c(cccc13)C(=O)N(C)C2=O`, the activity change, negative = cytotoxicity is reported as -12.7% (inactive). For `CCOC(=O)c1ccc[n+](CC(=O)c2ccc(OC)cc2)c1`, the activity change, negative = cytotoxicity was -1.73% (inactive). With `S=c1c2c(nc3nc[nH]n13)CCC2` the activity change, negative = cytotoxicity was -7.9% (inactive). For `O=c1ccc2cc3c4c(c2o1)CCCN4CCC3`, the activity change, negative = cytotoxicity was -19.7% (inactive). In the case of `Cc1cc2nc3c(=O)[nH]c(=S)[nH]c3nc2cc1NC(=O)C(F)(F)F`, the activity change, negative = cytotoxicity is reported as -3.95% (inactive). In the case of `CC(C)Cn1c(N)c(C(=O)CSc2nnc(-c3ccco3)n2C)c(=O)n(C)c1=O`, the activity change, negative = cytotoxicity is reported as -1.08% (inactive). For `O=c1nc(N2CCOCC2)ccn1-c1nc(-c2ccccc2)sc1-c1ccccc1`, the activity change, negative = cytotoxicity was -8.43% (inactive). For `Cc1ccc(NC(=O)CN2C(=O)N/C(=C/c3cccn3-c3ccc(C(=O)O)cc3)C2=O)cc1`, the activity change, negative = cytotoxicity was -4.45% (inactive). With `Cc1nn(CC(=O)c2ccc(Br)s2)c(C)c1[N+](=O)[O-]` the activity change, negative = cytotoxicity was -2.98% (inactive). In the case of `N#CC1=C(N)Oc2ccc3ccc(O)cc3c2C1c1ccsc1` (configuration not stated), the activity change, negative = cytotoxicity is reported as 5.49% (inactive). With `O=C(O)C1C2C=CC(CC2)C1C(=O)O` (configuration not stated) the activity change, negative = cytotoxicity was -1.75% (inactive). With `Cn1cc(C(=O)c2ccc(Cl)cc2Cl)cc1C(=O)N/N=C(\N)COc1ccccc1` the activity change, negative = cytotoxicity was -7.82% (inactive). With `CN(C)c1ccc(/C=N/N(CCO)C2=NS(=O)(=O)c3ccccc32)cc1` the activity change, negative = cytotoxicity was -6.62% (inactive). With `CC(C)C(=O)N1CCN(c2ccccc2NC(=S)NC(=O)c2ccco2)CC1` the activity change, negative = cytotoxicity was -12.9% (inactive). In the case of `COCCN(CCOC)Cc1c(O)ccc2c1O/C(=C\c1ccco1)C2=O`, the activity change, negative = cytotoxicity is reported as -13.7% (inactive). With `CCCCN(C(=O)CSc1nnc(-c2ccc(Cl)cc2)o1)c1c(N)n(CC(C)C)c(=O)[nH]c1=O` the activity change, negative = cytotoxicity was 5.27% (inactive). With `COc1ccc(NC(=O)CO/N=C2/CCCc3nonc32)c(OC)c1` the activity change, negative = cytotoxicity was -3.9% (inactive). In the case of `CCN(CC)c1ccc2cc(S(=O)(=O)c3ccc(Cl)cc3)c(=O)oc2c1`, the activity change, negative = cytotoxicity is reported as -13.6% (inactive). In the case of `COc1ccc(-c2cc(C(F)(F)F)n3ncc(C(=O)N4CCCCC4c4cccnc4)c3n2)cc1` (configuration not stated), the activity change, negative = cytotoxicity is reported as -6.34% (inactive). For `Cn1c2ccccc2c2cnn(CC(=O)Nc3cccc(F)c3)c(=O)c21`, the activity change, negative = cytotoxicity was -9.52% (inactive). With `O=C(NCCN1CCN(C(=O)c2cccs2)CC1)c1cccs1` the activity change, negative = cytotoxicity was -5.34% (inactive). In the case of `COc1ccc(-c2n[nH]c(=S)n2-c2ccc(C)cc2)cc1`, the activity change, negative = cytotoxicity is reported as 4.29% (inactive).
